Measurements taken from ChEMBL document CHEMBL1201862, “PubChem BioAssay data set” (2004).
Calls of active or inactive are those of the source. Rule as the data show it, for most assays here: actives have a measured EC50 and inactives only a lower limit.

What was measured:
INS1 = experiment: INS-1E survival protection against cytokine death – cell-based, luminescence, retest, dose response (AID 449756); format: functional; conditions: Rattus norvegicus;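 also: cell death triggered by IL-1 beta plus TNF-alpha plus IFN-gamma mixture; protective hits raise ATP signal compared with cytokine alone wells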
[1] = biological target: T1, Heat shock factor protein 1 (Mus musculus, UniProt P38532); experiment: enhancement of HSF1-driven luciferase signal – cell-based, NIH3T3, luminescence, dose retest, confirmation (AID 435004); format: functional;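 also: stress induced by proteasome inhibitor MG132 added 30 min after compound; luciferase reporter driven by HSF1 response element in NIH3T3 cells; actives raise luminescence as potentiators of the MG132 stress response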
T1 sequence (P38532 whole entry): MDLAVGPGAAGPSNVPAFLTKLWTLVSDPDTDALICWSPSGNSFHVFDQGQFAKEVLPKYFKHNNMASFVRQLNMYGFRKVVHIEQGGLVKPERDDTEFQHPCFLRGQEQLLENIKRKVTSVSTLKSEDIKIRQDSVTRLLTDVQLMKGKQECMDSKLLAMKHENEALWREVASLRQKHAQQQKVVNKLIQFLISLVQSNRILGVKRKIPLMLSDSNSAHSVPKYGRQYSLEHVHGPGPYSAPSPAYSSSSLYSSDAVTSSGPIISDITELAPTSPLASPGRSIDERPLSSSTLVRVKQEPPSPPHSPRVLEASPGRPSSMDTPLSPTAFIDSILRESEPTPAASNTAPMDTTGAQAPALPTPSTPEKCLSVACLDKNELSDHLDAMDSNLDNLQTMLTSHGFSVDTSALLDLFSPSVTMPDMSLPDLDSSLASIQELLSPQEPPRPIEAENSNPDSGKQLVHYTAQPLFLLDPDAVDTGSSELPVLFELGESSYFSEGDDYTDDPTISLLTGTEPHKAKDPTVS

Streptococcus = experiment: GAS UMAA2166 growth inhibition – luminescence, BacTiterGlo, counter-screen for streptokinase expression inhibitor project, dose response (AID 1915); format: functional, organism-based;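 also: potency for reduction of bacterial viability or growth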
[2] = Trypanosoma cruzi growth suppression in host cells – NIH3T3 host cells, beta-gal luminescence, confirmation (AID 2044); format: functional, cell-based;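 also: intracellular parasites grown in NIH/3T3 mouse fibroblasts as host cells; luminescent beta-galactosidase reporter signal from transgenic T. cruzi replicating inside host cells; inhibitors lower the luminescence signal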
[3] = tested on: Streptococcus sp. 'group A'; experiment: Streptococcus pyogenes SK(-)GAS viability under kanamycin – luminescence, BacTiterGlo, confirmation, counter-screen for streptokinase expression inhibitor project, dose response (AID 1900); format: functional, organism-based
[4] = NIH3T3 cell viability loss – ATP luminescence, mouse fibroblasts, counter-screen, dose response (AID 2010); format: functional, cell-based;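 also: cells exposed to compound for about 90 hours before reading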
Streptokinase A = biological target: T2, Streptokinase A (Streptococcus pyogenes serotype M1, UniProt P10520); experiment: viability-normalized secreted streptokinase activity reduction – plasminogen activation absorbance, OD405, dose response (AID 1914); format: functional, Streptococcus pyogenes M1 GAS;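 also: secreted streptokinase activity via plasminogen activation per viability signal from cell pellet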
T2 sequence (P10520 whole entry): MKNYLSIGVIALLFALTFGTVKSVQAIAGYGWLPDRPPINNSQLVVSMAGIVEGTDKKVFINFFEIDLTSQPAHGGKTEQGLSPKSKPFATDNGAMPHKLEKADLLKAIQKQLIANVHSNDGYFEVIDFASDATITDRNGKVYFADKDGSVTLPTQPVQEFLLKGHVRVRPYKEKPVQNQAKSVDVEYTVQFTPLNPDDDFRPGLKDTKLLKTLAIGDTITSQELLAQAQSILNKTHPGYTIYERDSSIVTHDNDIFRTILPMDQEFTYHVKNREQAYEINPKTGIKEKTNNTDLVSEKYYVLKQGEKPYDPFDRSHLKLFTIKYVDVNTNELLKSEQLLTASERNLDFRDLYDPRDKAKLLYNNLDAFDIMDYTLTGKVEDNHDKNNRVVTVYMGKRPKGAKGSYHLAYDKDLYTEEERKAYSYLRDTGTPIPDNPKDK

[5] = fluconazole-exposed Candida albicans growth modulators – fluorescence, retest, confirmation (AID 2467); format: functional, cell-based
[6] = NIH-3T3 fibroblast cytotoxicity, dose response, cytotoxicity control, cell-based, fluorescence, Alamar Blue, secondary assay (AID 2327); format: functional;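 also: NIH-3T3 mouse fibroblasts cultured with fluconazole at 8 µg/mL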
[7] = biological target: T3, Corticotropin-releasing factor receptor 2/Corticotropin-releasing factor-binding protein (Homo sapiens, UniProt P24387+Q13324); experiment: activators of CRF receptor 2 with binding protein – uHTS hits, confirmation (AID 602473); format: functional; conditions: read-out: EC50_Mean
T3 sequence (Q13324 whole entry): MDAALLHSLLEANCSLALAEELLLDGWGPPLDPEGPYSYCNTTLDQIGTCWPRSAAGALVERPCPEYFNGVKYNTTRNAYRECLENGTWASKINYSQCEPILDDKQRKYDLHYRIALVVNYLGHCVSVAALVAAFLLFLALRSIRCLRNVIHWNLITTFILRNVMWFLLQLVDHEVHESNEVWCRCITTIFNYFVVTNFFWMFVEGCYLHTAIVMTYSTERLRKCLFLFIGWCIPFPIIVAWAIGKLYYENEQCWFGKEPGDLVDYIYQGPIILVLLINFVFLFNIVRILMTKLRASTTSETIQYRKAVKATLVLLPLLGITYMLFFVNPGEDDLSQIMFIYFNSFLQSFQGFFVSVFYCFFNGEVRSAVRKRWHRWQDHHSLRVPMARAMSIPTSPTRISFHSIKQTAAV
T3 sequence (P24387 whole entry): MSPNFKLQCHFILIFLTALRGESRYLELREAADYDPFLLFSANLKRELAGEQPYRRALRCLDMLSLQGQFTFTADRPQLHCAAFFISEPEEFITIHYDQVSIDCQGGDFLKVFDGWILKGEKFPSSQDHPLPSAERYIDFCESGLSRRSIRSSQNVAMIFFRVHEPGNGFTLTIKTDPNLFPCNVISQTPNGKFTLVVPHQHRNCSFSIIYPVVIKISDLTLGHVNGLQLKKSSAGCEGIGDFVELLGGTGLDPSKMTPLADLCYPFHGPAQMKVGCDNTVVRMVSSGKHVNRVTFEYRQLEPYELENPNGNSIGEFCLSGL

[8] = biological target: T3, Corticotropin-releasing factor receptor 2/Corticotropin-releasing factor-binding protein; experiment: Dose Response confirmation of uHTS hits for small molecule antagonists of the CRF-binding protein and CRF-R2 receptor complex.; format: functional; conditions: read-out: IC50_Mean

SMILES: CCCCCc1ccc(-c2cn(CN3C(=O)c4ccccc4C3=O)nn2)cc1
- AC50 (INS1): 1.82 µM (active)

SMILES: Cc1ccc(=O)n(C(C(=O)NCc2ccco2)C(=O)c2ccc(F)cc2)c1 (stereo not drawn)
- EC50 [1]: > 260 µM (inactive)

SMILES: CCOc1ccc(CN(CCCl)CCCl)cc1C(=O)OC
- EC50 [1]: 12.6 µM (active)

SMILES: CC(=O)c1c(N2CCOCC2)nc2ccc(Br)cc2c1-c1ccccc1
- EC50 [1]: 124 µM (active)

SMILES: CCC1CCCCN1C(=O)c1cc(COc2ccc(-n3cncn3)cc2)on1 (stereo not drawn)
- AC50 (INS1): 8.64 µM (active)

SMILES: C=CCN1C(=O)NC(c2ccccc2)(C(F)(F)F)S/C1=C(\C#N)c1nnc(N2CCOCC2)n1-c1ccccc1 (stereo not drawn)
- EC50 [1]: 22.1 µM (active)

SMILES: CCn1cc(Cl)c(C(=O)N2N=C(c3ccc4ccccc4c3)CC2c2ccccc2O)n1 (stereo not drawn)
- EC50 (Streptococcus): > 150 µM (not active)
- EC50 [2]: 1.66 µM (active)
- EC50 [3]: 9.18 µM (active)
- EC50 [4]: > 60 µM (inconclusive)
- EC50 (Streptokinase A): 13 µM (active)

SMILES: COC(=O)C1=NN(C(=O)c2ccc(Cl)cc2)C(O)(c2ccccc2)C1 (stereo not drawn)
- EC50 [5]: > 38 µM (not active)
- EC50 [6]: 29.9 µM (active)

SMILES: COc1ccc(N(CC(=O)NCCC2=CCCCC2)S(=O)(=O)c2ccccc2)cc1
- EC50 [1]: > 260 µM (inactive)

SMILES: COc1ccc(N2CCN(CCCNC(=O)C(=O)c3c(C)[nH]c4ccccc34)CC2)cc1
- EC50 [7]: > 53 µM (inactive)
- IC50 [8]: > 47.1 µM (inactive)

SMILES: Cc1noc(C)c1COC(=O)c1cccc(S(=O)(=O)N2c3ccccc3CC2C)c1 (stereo not drawn)
- EC50 [7]: > 53 µM (inactive)
- IC50 [8]: > 47.1 µM (inactive)

SMILES: O=C1NN(c2ccccc2)C(=O)/C1=C\c1ccc2c(c1)OCO2
- EC50 [1]: > 260 µM (inactive)

SMILES: CC1CCN(c2nc(CN3CCCCC3)nc3scc(-c4ccccc4)c23)CC1
- EC50 (Streptococcus): > 150 µM (not active)
- EC50 [3]: 16.9 µM (active)
- EC50 (Streptokinase A): 19.1 µM (inconclusive)

SMILES: O=C(Nc1ccccc1C(=O)N1CCOCC1)c1ccncc1
- EC50 [7]: > 53 µM (inactive)
- IC50 [8]: > 47.1 µM (inactive)

SMILES: COCC(=O)Nc1nc2n(n1)C(c1ccccc1Cl)CC(c1ccc(OC)cc1)N2 (stereo not drawn)
- EC50 [5]: > 38 µM (not active)
- EC50 [6]: > 160 µM (inactive)

SMILES: COc1ccc(CCn2c(C)cc(C(=O)COC(=O)c3ccc(NC(=O)CC#N)cc3)c2C)cc1
- EC50 (Streptococcus): > 150 µM (not active)
- EC50 [3]: 61.7 µM (active)
- EC50 (Streptokinase A): > 150 µM (not active)

SMILES: CN(C)S(=O)(=O)Oc1cccc(C(=O)Nc2ccc(Cl)cc2)c1
- EC50 [5]: 1.25 µM (active)
- EC50 [6]: > 160 µM (inactive)

SMILES: CSc1nc2nccc(-c3ccc(-c4ccccc4)cc3)n2n1
- EC50 (Streptococcus): 23.6 µM (active)
- EC50 [3]: 3.79 µM (active)
- EC50 (Streptokinase A): > 150 µM (not active)

SMILES: Cc1cc(/C=C(/C#N)C(=O)O)c(C)n1-c1cccc2ccccc12
- EC50 [7]: > 53 µM (inactive)
- IC50 [8]: 6.86 µM (active)

SMILES: Cc1cccc(C)c1NC(=O)c1sccc1SCc1cccc(C(F)(F)F)c1
- EC50 [7]: > 53 µM (inactive)
- IC50 [8]: > 47.1 µM (inactive)

SMILES: C/C=C/c1c(F)c(F)c(Oc2ccc(C(=O)O)cc2)c(F)c1F
- EC50 [1]: > 260 µM (inactive)

SMILES: Cc1occc1C(=O)N1CCCC(N2CCN(c3cccc(C(F)(F)F)c3)CC2)C1 (stereo not drawn)
- AC50 (INS1): 111 µM (active)

SMILES: CC(C)CN(C(=O)COC(=O)C12CC3CC(CC(Cl)(C3)C1)C2)c1c(N)n(Cc2ccccc2)c(=O)[nH]c1=O
- AC50 (INS1): 7.15 µM (active)

SMILES: COCCCN1C(=O)C(O)=C(C(=O)c2ccc(OCC(C)C)cc2C)C1c1cccnc1 (stereo not drawn)
- EC50 [5]: > 38 µM (not active)
- EC50 [6]: > 150 µM (inactive)

SMILES: O=C(CSc1ccc(-c2ccncc2)nn1)N1CCN(c2ccccc2)CC1
- EC50 [7]: > 53 µM (inactive)
- IC50 [8]: > 47.1 µM (inactive)

SMILES: O=C(OCc1ccc2c(c1)OCO2)c1ccc(S(=O)(=O)N2CCCC2)cc1
- EC50 [7]: > 53 µM (inactive)
- IC50 [8]: > 47.1 µM (inactive)

SMILES: Fc1ccccc1N=C(S)N1CCN(c2ccccn2)CC1
- EC50 [1]: > 260 µM (inactive)

SMILES: O=C(NC1CCCCC1)c1cc([N+](=O)[O-])n[nH]1
- EC50 [5]: 1.66 µM (active)
- EC50 [6]: 154 µM (active)

SMILES: O=C(Cc1nc2ccccc2nc1O)c1ccc(Cl)cc1
- EC50 [1]: 198 µM (inconclusive)

SMILES: O=C(c1ccc(Br)cc1)N1CCCC(c2nc(-c3cccs3)no2)C1 (stereo not drawn)
- EC50 [1]: > 260 µM (inactive)

SMILES: CC(=O)OCC1=C(C(=O)O)N2C(=O)C(NC(=O)c3ccc(F)cc3)C2SC1 (stereo not drawn)
- EC50 (Streptococcus): 7.79 µM (active)
- EC50 [3]: 3.94 µM (active)
- EC50 (Streptokinase A): > 150 µM (not active)

SMILES: CCOC(=O)c1c(C)oc2c1c(C(c1ccccc1)N1CCOCC1)c(O)c1ccccc12 (stereo not drawn)
- EC50 (Streptococcus): 5.32 µM (active)
- EC50 [3]: 3.16 µM (active)
- EC50 (Streptokinase A): 0.886 µM (active)

SMILES: COc1ccc(N(CC(=O)NCCSc2ccccn2)S(=O)(=O)c2ccc(C)cc2)cc1OC
- EC50 [7]: > 53 µM (inactive)
- IC50 [8]: > 47.1 µM (inactive)

SMILES: c1ccc2c(Nc3nc4c(s3)CCCC4)cccc2c1
- EC50 (Streptococcus): > 150 µM (not active)
- EC50 [3]: 14.4 µM (active)
- EC50 (Streptokinase A): 19.6 µM (inconclusive)

SMILES: COc1ccc(C(=O)NCCS(=O)(=O)N(C)C2CCCCC2)cc1
- EC50 [7]: > 53 µM (inactive)
- IC50 [8]: > 47.1 µM (inactive)

SMILES: O=C1CCC(/C=C/c2ccccc2)=NN1
- EC50 [1]: > 260 µM (inactive)

SMILES: COCCn1c(SCC(=O)NC2CCCCC2)nc2c(c1=O)SCC2
- EC50 [1]: > 260 µM (inactive)

SMILES: COCC(=O)N(C)[C@H]1C[C@H]2c3cc(N4CCN(C)CC4)ccc3CCN2C(=O)[C@H]1[C@H](C)O
- EC50 [7]: > 53 µM (inactive)
- IC50 [8]: > 47.1 µM (inactive)

SMILES: Nc1c(Cl)ncnc1N/N=C/c1ccccn1
- AC50 (INS1): 0.521 µM (active)

SMILES: O=C(COc1ccccc1)NCc1ccco1
- EC50 [7]: > 53 µM (inactive)
- IC50 [8]: > 47.1 µM (inactive)

SMILES: COc1cccc(/N=C/C2=C(O)OC3(CCCCC3)OC2=O)c1
- EC50 [1]: > 260 µM (inconclusive)
